Source: article PMC11044963, “Probing the CRL4^DCAF12 interactions with MAGEA3 and CCT5 di-Glu C-terminal degrons” (PNAS Nexus, 2024)
Entries after “also recorded” stand apart in the source; their conditions may differ. Where no end group is shown, it is not given here.

Tests used:
[1] = molecular target: T1, DCAF12-DDB1 (Homo sapiens, UniProt Q16531+Q5T6F0); assay: FP direct peptide binding, DDB1–DCAF12 complex; details: for Kd range, FP direct binding: DDB1–DCAF12, FITC-labeled peptide
T1 construct: Despite our attempts to express and purify the full-length (FL) DCAF12 in isolation; made in house; host or cells: Spodoptera frugiperda Sf9 (baculovirus co-expression)
From the text: (§1) To further characterize DCAF12 binding to MAGEA3 and CCT5 degrons, we developed a fluorescence polarization (FP)-based peptide binding and displacement assay in vitro. We designed small N-terminal fluorescein isothiocyanate (FITC)-labeled peptides harboring 11 C-terminal residues of MAGEA3 ([…]) and nine from CCT5 ([…]), both carrying the known -EE degron.
(§2) DCAF12 constructs were subcloned from Mammalian Gene Collection (MGC) stock BC063823 into baculovirus expression vector pFBOH-MHL. For co-expression with DCAF12, DDB1 (MGC stock […]) and DDA1 (MGC stock BC000615) were subcloned into pFBOH-LIC vector lacking any protein tags. For testing DDB1-FL direct binding to peptides on FP assay, the protein was expressed using pFBOH-MHL vector with His-tag. All protein constructs were expressed in Spodoptera frugiperda (Sf9), as previously described ([37]).
(§3) FP-binding assays were performed using 20 mM Tris pH 7.5, 150 mM NaCl, 5% glycerol, 0.5 mM TCEP, and 0.01% Triton buffer. All tested proteins were titrated from an initial 4 µM highest concentration, followed by a factor two serial dilution. N-terminally labeled FITC peptides ([…] for MAGEA3, […] for CCT5, and […] for H3K9A) binding to proteins was tested at 20 nM final concentration. The assay was incubated for 45 min at room temperature, and plates were read using BioTek Synergy 4 (BioTek) plate reader. Prior to displacement assay, proteins at binding Kd concentration were mixed with FITC peptides at 20 nM final concentration. Displacement was evaluated by using a titration curve of unlabeled peptide, with 40 µM as the highest concentration. Buffer, incubation time, and reading conditions followed FP-binding protocol. All FP analyses were performed in triplicates and, at least, two independent experiments. All Kd and KDISP values were calculated using GraphPad Prism version 9.0.

[2] = system: DCAF12; assay: NanoBRET with full-length proteins, DCAF12; type: cell-based, human; details: HEK293T cells; FL protein
From the text: (§4) To further investigate the DCAF12 interaction with MAGEA3 and CCT5 in cells, we developed a NanoBRET assay, which measures the interaction of […] FL MEAGEA3/CCT5 or C-terminal peptide containing degron sequences ([…]/[…], respectively). When donor and acceptor proteins are in close proximity, the donor excites the acceptor, which then emits fluorescence, allowing for direct measurement of protein–protein interaction in cells.
HEK293T cells were plated in 96-well plates (2 × 10^4/well) and 4 h later transfected with 0.03 µg/well N-terminally HT-tagged DCAF12 (WT or mutants) or HT alone and 0.001 µg/well N-terminally NL-tagged CCT5 and MAGEA3 (FL or -EE degrons) using X-tremeGene HP transfection reagent (Roche), following the manufacturer's instructions. […] Four hours later, 10 µL of NanoBRET Nano-Glo Substrate solution (8 µL/mL Nano-Glo substrate (Promega) diluted in DMEM/F12 no phenol red, supplemented with 4% FBS, penicillin 100 U/mL, and streptomycin 100 µg/mL) was added, and the signal was read. Donor emission at 450 nm (filter: 450 nm/BP 80 nm) and acceptor emission at 618 nm (filter: 610 nm/LP) were measured within 10 min of substrate addition using CLARIOstar microplate reader (Mandel). […]

[3] = system: DCAF12 mutants K91A, K108A, R203A, R256A, R344A; assay: NanoBRET with full-length proteins, DCAF12 mutants; type: cell-based, human; details: HEK293T cells; FL protein or degron as stated; DCAF12 mutations vs WT
From the text: Fig. 2. Conserved arginine and lysine residues near DCAF12 central channel participate in MAGEA3 binding in cells. A) DCAF12 electrostatic surface potential analysis showing negatively and positively charged residues colored in red and blue, respectively. On the left, DDB1 contacting surface of DCAF12. On the right, substrate contacting surface with positively charged residues—Arg203, Arg256, and Arg344—highlighted as sticks. Electrostatic potential is shown on a scale of −10 (red) kT/e to 10 (blue). B) Conservation analysis of DCAF12 showing high conservation of the same positively charged residues (represented as sticks) among homologous sequences. Residues were colored on a scale from variable/low conservation (dark teal) to high conservation (magenta). […]
(§5) HEK293T cells were plated in 96-well plates (2 × 10^4/well) and 4 h later transfected with 0.03 µg/well N-terminally HT-tagged DCAF12 (WT or mutants) or HT alone and 0.001 µg/well N-terminally NL-tagged CCT5 and MAGEA3 (FL or -EE degrons) using X-tremeGene HP transfection reagent (Roche), following the manufacturer's instructions. […] Four hours later, 10 µL of NanoBRET Nano-Glo Substrate solution (8 µL/mL Nano-Glo substrate (Promega) diluted in DMEM/F12 no phenol red, supplemented with 4% FBS, penicillin 100 U/mL, and streptomycin 100 µg/mL) was added, and the signal was read. […]

[4] = system: DCAF12 R203A/R244A; assay: NanoBRET with -EE degrons, second DCAF12 double arginine mutant; type: cell-based, human; details: HEK293T cells; HT-tagged DCAF12 mutant, NL-tagged degron; vs WT
From the text: as §4
(§6) Therefore, we used site-directed mutagenesis to generate two DCAF12 mutants in the central pocket of the WDR domain: R203A/R256A and R203A/R244A. DCAF12 wild-type (WT) and mutant interactions with MAGEA3 and CCT5 degron peptides were tested in a NanoBRET proximity-based assay (Fig. 2C).
as §5

[5] = system: DCAF12 R203A/R256A; assay: NanoBRET with -EE degrons, DCAF12 R203A/R256A mutant; type: cell-based, human; details: HEK293T cells; HT-tagged DCAF12 R203A/R256A, NL-tagged degron; vs WT
From the text: as §4, §6, §5

[6] = molecular target: T2, DCAF12 (Δ1–78) (Homo sapiens, UniProt Q5T6F0); assay: FP direct peptide binding, DCAF12 (Δ1–78); details: FITC-labeled peptide
T2 construct: DCAF12:79-453aa; His6-TEV site ([…]) (N); made in house; host or cells: Spodoptera frugiperda Sf9 (baculovirus)
From the text: as §1, §2
FP-binding assays were performed using 20 mM Tris pH 7.5, 150 mM NaCl, 5% glycerol, 0.5 mM TCEP, and 0.01% Triton buffer. […] The assay was incubated for 45 min at room temperature, and plates were read using BioTek Synergy 4 (BioTek) plate reader. […] Displacement was evaluated by using a titration curve of unlabeled peptide, with 40 µM as the highest concentration. Buffer, incubation time, and reading conditions followed FP-binding protocol. […] All Kd and KDISP values were calculated using GraphPad Prism version 9.0.

[7] = molecular target: T3, DCAF12-DDB1-DDA1 (Homo sapiens, UniProt Q16531+Q5T6F0+Q9BW61); assay: FP direct peptide binding, DDB1–DCAF12–DDA1 complex; details: for Kd range, FP direct binding: DDB1–DCAF12–DDA1, FITC-labeled peptide
T3 construct: Despite our attempts to express and purify the full-length (FL) DCAF12 in isolation; made in house; host or cells: Spodoptera frugiperda Sf9 (baculovirus co-expression)
From the text: as §1, §2, §3

[8] = molecular target: T4, biotinylated DCAF12 (Δ1–78) (Homo sapiens, UniProt Q5T6F0); assay: SPR peptide binding, biotinylated DCAF12 (Δ1–78); details: unlabeled peptide, 15 °C, 1:1 Langmuir; for koff: dissociation phase 200 s; for koff / kon: HEPES pH 7.4, 2% DMSO, Fig. 1D, E; for kon: injected 120 s at 30 μL/min
T4 construct: DCAF12:79-453aa; His6 with linker ([…]) (C); made in house; host or cells: Sf9 cells (baculovirus, pFBD-BirA vector)
Description: For SPR experiments, DCAF12 Δ1–78 sequence was subcloned into pFBD-BirA vector, expressed in sf9 cells, and purified as described (Table S2). Biotinylated DCAF12 (Δ1–78) was immobilized to a level of ∼3,200 RU on a Biacore Series S streptavidin chip (Cytiva BR100531) using a Biacore 8K+ (Cytiva). Experiments were performed in a running buffer of 10 mM 4-(2-hydroxyethyl)-1-piperazineethanesulfonic acid (HEPES), pH 7.4, 150 mM NaCl (Cytiva BR-1006-70), 3 mM EDTA (Corning 46-034-CI), 0.005% P20 (Cytiva BR-1000-54), 5% Glycerol (Sigma G5516-1L), and 2% DMSO (Millipore Sigma MX1457-6). CCT5 and MAGEA3 peptides were injected over a period of 120 s at 30 μL/min followed by a dissociation phase of 200 s in an 8-point 2-fold dilution series with a top concentration of 1 μM. All steps were carried out at 15 °C. Reference and buffer-blank subtracted data were analyzed with the Biacore 8K Evaluation Software and fit to a 1:1 Langmuir model to obtain binding kinetics and KD values.

Substance	effect of DCAF12 mutation on interaction with degron, NanoBRET [4]	effect of DCAF12 mutation on interaction with degron, NanoBRET [5]	Kd range, FP direct binding [1]	Kd range, FP direct binding [6]	Kd range, FP direct binding [7]	koff [8] [s⁻¹]	kon [8] [M⁻¹ s⁻¹]	also measured
ARTKQTARASTGGK [H3K9A, reference compound]								FP binding of control peptide lacking -EE ([1]; FITC-labeled peptide 20 nM, protein up to 4 µM, Tris pH 7.5, 45 min, room temperature, DCAF12-DDB1 complex per Fig. S2): did not show any binding
CCT5-FL: full-length T-complex protein 1 subunit epsilon protein								BRET signal over negative control [2]: 3.6 fold; engagement with DCAF12 in cells, NanoBRET [2]: low engagement; effect of DCAF12 mutations on interaction, NanoBRET [3]: no changes were observed; also recorded: little to no effect
IRKPGESEE [CCT5 degron]	significantly decreased	significantly decreased						
IRKPGESEE [CCT5]			nanomolar range	nanomolar range	nanomolar range	0.017	290000	Kd ([8]; 8-point 2-fold dilution from 1 μM, 10 mM HEPES pH 7.4, 150 mM NaCl, 3 mM EDTA, 0.005% P20, 5% glycerol, 2% DMSO, Table S1): 60 nM
LHEWVLREGEE [MAGEA3 degron]	significantly decreased	significantly decreased						
LHEWVLREGEE [MAGEA3]			nanomolar range	nanomolar range	nanomolar range	0.06	370000	Kd ([7]; FITC-labeled peptide 20 nM, protein 2-fold dilution from 4 µM, 20 mM Tris pH 7.5, 150 mM NaCl, 5% glycerol, 0.5 mM TCEP, 0.01% Triton, 45 min, room temperature, triplicates, at least two independent experiments): 60 nM
